According to patent US10676468B2, “N-(3-heteroarylaryl)-4-arylarylcarboxamides and analogs as hedgehog pathway inhibitors and use thereof” (IMPACT Therapeutics, Inc., priority 2012, dated 2020):
pIC50: −log10 of the molar value. Values belong to the compound of their own block, whether it stands above or below them.

Assays:
[1] = system: Hedgehog Signaling Pathway; assay: SAG-induced differentiation of C3H10T1/2 cells into osteoblastic cells, intracellular alkaline phosphatase activity; type: cell-based, mouse; details: 1 μM SAG, 5 days, alkaline phosphatase activity (OD405), read-out: IC50 values of compounds that inhibit Hh pathway
Text: (§1) The Application of SAG to Induce Pluripotent Mesenchymal Mouse Embryonic Cell C3H/10T1/2 to Differentiate into Osteoblastic Cells for the Determination of the Inhibitory Activity of N-(3-(1H-benzo[d]imidazol-2-yl)-4-chlorophenyl)-2-methyl-4-((2S,6R)-2,6-dimethylmorpholino)benzamide and Analogs on Hedgehog Signaling Pathway
The intracellular alkaline phosphatase activity is a reliable indication of the differentiation process. Therefore this enzymatic activity can be used to monitor the activity of hedgehog pathway inhibitors.
The C3H10T1/2 cells were grown in DMEM medium supplemented with 10% fetal bovine serum (FBS, Hyclone) at 37° C. with 5% CO2. 10000 cells were sown to each well of a 96-well microplate a day before the experiment and grown overnight. At the day of experiment, the inducing medium and inhibitor solutions were prepared as follows: the reference compound and testing compounds were serially diluted 1 to 3 and 1 to 10 in DMSO to seven concentrations with the eighth concentration being DMSO. A 10-fold dilution was prepared by mixing 10 μL of the DMSO dilution with 90 μL of fresh growing medium. […] Pre-sown cells were taken out from incubator and the medium was removed. To each well, 180 μL inducing medium was added and followed immediately with 20 μL of testing or reference compound dilutions. The testing compound concentrations are between 10 μM and 1 nM. The cells were then return to CO2 incubator to grow additional 5 days at 37° C.
(§2) After incubating for 5 days, the cells were taken out and intracellular alkaline phosphatase activity was tested. The alkaline phosphatase activity was measured as follows:
1) Preparation of Substrate Solution:
(§3) Solution A: A 0.5 mM MgCl2 (Sigma Prod. No. M-0250) solution was prepared.
(§4) After the pH value was adjusted to 9.8 with 5 M HCl at 37° C., the total volume was adjusted to 100 mL.
(§5) After it is completely dissolved the total volume was adjusted to 10 mL with the final concentration being 1 mM.
Substrate reaction medium: To 10 mL of solution B, 250 μL of solution A and 200 μL of solution C were added, and mixed well.
2) the Measurement of Intracellular Alkaline Phosphatase Activity:
(§6) After taking out the cells from the incubator, the cell culture medium was removed and cells were washed twice with PBS. 20 μL of lysis solution (0.2% Triton solution) was added to each well. After being shaken for 30 min at room temperature, each well of cells received 80 μL of substrate reaction medium. The microplate was placed immediately into a VariSkan Flashplate reader and absorbance at OD405 was read as background reading. The plate was replaced back to cell culture incubator at 37° C. for additional 30 min and the absorbance was read again using VariSkan Flash plate reader at OD405.
(§7) The data were analyzed by subtracting the background reading from the reading at 30 min, and the obtained numbers were plotted and analyzed with Prism 5 software (GraphPad). The phosphatase activity (calculated OD405) was plotted against the log concentration of testing compound, and the obtained plot was fitted with non-linear curve fitting equation to calculate IC50 values. The curve fitting equation is Y=Bottom+(Top−Bottom)/(1+10^((X−Log IC50))). X is the logarithm of concentration. Y is the measure of alkaline phosphatase activity (OD405).
(§8) The calculated IC50 value is a measurement of the inhibitory activity of compound to Hh pathway.

[2] = system: Hedgehog Signaling Pathway; assay: SHH-induced differentiation of C3H10T1/2 cells into osteoblastic cells, intracellular alkaline phosphatase activity; type: cell-based, mouse; details: 10 nM SHH-N, 5 days, alkaline phosphatase activity (OD405), read-out: IC50 values of compounds that inhibit Hh pathway
Description: as §1, with “SHH” for “SAG”, “C3H10T1/2” for “C3H/10T1/2”
The C3H10T1/2 cells were grown in DMEM medium supplemented with 10% fetal bovine serum (FBS, Hyclone) at 37° C. with 5% CO2. 10000 cells were sown to each well of a 96-well microplate a day before the experiment and grown overnight. […] The reference compound and testing compounds were serially diluted 1 to 3 and 1 to 10 in DMSO to seven concentrations with the eighth concentration being DMSO. A 10-fold dilution was prepared by mixing 10 μL of the DMSO dilutions with 90 μL of fresh growing medium. Pre-sown cells were taken out from incubator and the medium was removed. To each well, 180 μL of inducing medium containing 10 nM of SHH-N was added and followed immediately with 20 μL of 10× testing or reference compound dilutions. The testing compound concentrations are between 10 μM and 10 nM. The cells were then returned to CO2 incubator to grow additional 5 days at 37° C.
as §2
3) Preparation of Substrate Solution:
as §3, §4, §5
Substrate reaction medium: to 10 mL of solution B, 250 μL of solution A and 200 μL of solution C were added, and mixed well.
4) The Measurement of Intracellular Alkaline Phosphatase Activity:
as §6
as §7, with “Y=Bottom+(Top−Bottom)/(1+10^(X−Log IC50)).” for “Y=Bottom+(Top−Bottom)/(1+10^((X−Log IC50))).”
as §8

[3] = Mus musculus, C3H 10T1/2, 120 h

Compound: O=c1[nH]c2cc(-c3ccc(C(F)(F)F)cc3)ccc2c(=O)n1-c1ccc(Cl)c(-c2nc3ccccc3[nH]2)c1 [Example 26, 3-(3-(1H-benzo[d]imidazol-2-yl)-4-chlorophenyl)-7-(4-(trifluoromethyl)phenyl)quinazoline-2,4(1H,3H)-dione]
pIC50 [1, 3]: < 5.00 | pIC50 [2, 3]: < 5.00

Compound: Cc1cc(-c2ccc(C(F)(F)F)cc2)ccc1C(=O)N(C)c1ccc(Cl)c(-c2nc3ccccc3[nH]2)c1 [Example 48, N-(3-(1H-benzo[d]imidazol-2-yl)-4-chlorophenyl)-N,3-dimethyl-4′-(trifluoromethyl)biphenyl-4-carboxamide]
pIC50 [1, 3]: < 5.00 | pIC50 [2, 3]: < 5.00

Compound: Cc1cc(-c2ccc(C(F)(F)F)cc2)ccc1C(=O)Nc1cc(-c2nc3ccccc3[nH]2)cc(C(F)(F)F)c1 [Example 62, N-(3-(1H-benzo[d]imidazol-2-yl)-5-(trifluoromethyl)phenyl)-3-methyl-4′-(trifluoromethyl)biphenyl-4-carboxamide]
pIC50 [1, 3]: < 5.00 | pIC50 [2, 3]: 6.39

Compound: Cc1cc(-c2ccc(C(F)(F)F)cc2)ccc1C(=O)Nc1cccc(-c2nc3ccccc3[nH]2)c1 [Example 45, N-(3-(1H-benzo[d]imidazol-2-yl)phenyl)-3-methyl-4′-(trifluoromethyl)biphenyl-4-carboxamide]
pIC50 [1, 3]: 6.55 | pIC50 [2, 3]: 7.70

Compound: Cc1cc(-c2ccc(C(F)(F)F)cc2)ccc1C(=O)Nc1cccc(-c2nc3ccccc3[nH]2)n1 [Example 72, N-(6-(1H-benzo[d]imidazol-2-yl)pyridin-2-yl)-3-methyl-4′-(trifluoromethyl)biphenyl-4-carboxamide]
pIC50 [1, 3]: < 5.00 | pIC50 [2, 3]: 6.33

Compound: Cc1cc(N2CCNCC2)ccc1C(=O)Nc1ccc(Cl)c(-c2nc3ccccc3[nH]2)c1 [Example 108, N-(3-(1H-benzo[d]imidazol-2-yl)-4-chlorophenyl)-2-methyl-4-(piperazin-1-yl)benzamide]
pIC50 [1, 3]: 6.16 | pIC50 [2, 3]: 7.12

Compound: Cc1cc(-c2ccc(C(F)(F)F)cc2)ccc1C(=O)Nc1cc(-c2nc3ccccc3[nH]2)ccn1 [Example 61, N-(4-(1H-benzo[d]imidazol-2-yl)pyridin-2-yl)-3-methyl-4′-(trifluoromethyl)biphenyl-4-carboxamide]
pIC50 [1, 3]: < 5.00 | pIC50 [2, 3]: < 5.00

Compound: N-(3-(imidazo[1,2-a]pyridin-2-yl)-4-chlorophenyl)-3-methyl-4′-(trifluoromethyl)biphenyl-4-carboxamide [Example 67]
pIC50 [1]: < 5.00 | pIC50 [2]: 7.17

Compound: C[C@@H]1CN(c2cc(Cl)c(C(=O)Nc3ccc(Cl)c(-c4nc5ccccc5[nH]4)c3)cn2)C[C@H](C)O1 [Example 36, N-(3-(1H-benzo[d]imidazol-2-yl)-4-chlorophenyl)-4-chloro-6-((2S,6R)-2,6-dimethylmorpholino)nicotinamide]
pIC50 [1, 3]: 6.44 | pIC50 [2, 3]: 7.02

Compound: C[C@@H]1CN(c2ccc(C(=O)Nc3ccc(Cl)c(-c4nnc5cnccn45)c3)cn2)C[C@H](C)O1 [Example 58, N-(3-([1,2,4]triazolo[4,3-a]pyrazin-3-yl)-4-chlorophenyl)-6-((2S,6R)-2,6-dimethylmorpholino)nicotinamide]
pIC50 [1, 3]: < 5.00 | pIC50 [2, 3]: < 5.00

Continued, values first:

pIC50 [1, 3]: 6.72 | pIC50 [2, 3]: 8.35
Compound: Cc1cc(-c2ccc(C(F)(F)F)cc2)ccc1C(=O)Nc1ccc(F)c(-c2nc3ccccc3[nH]2)c1 [Example 74, N-(3-(1H-benzo[d]imidazol-2-yl)-4-fluorophenyl)-3-methyl-4′-(trifluoromethyl)biphenyl-4-carboxamide]

pIC50 [1, 3]: 6.64 | pIC50 [2, 3]: 6.47
Compound: Cc1cc(-c2ccsc2)ccc1C(=O)Nc1ccc(Cl)c(-c2nc3ccccc3[nH]2)c1 [Example 42, N-(3-(1H-benzo[d]imidazol-2-yl)-4-chlorophenyl)-2-methyl-4-(thiophen-3-yl)benzamide]

pIC50 [1, 3]: 6.79 | pIC50 [2, 3]: 7.62
Compound: O=C(Nc1ccc(Cl)c(-c2nc3ccccc3[nH]2)c1)c1ccc(-c2ccccc2)cc1 [Example 23, N-(3-(1H-benzo[d]imidazol-2-yl)-4-chlorophenyl) biphenyl-4-carboxamide]

pIC50 [1, 3]: 7.59 | pIC50 [2, 3]: 8.23
Compound: Cc1cc(-c2ccc(S(C)(=O)=O)cc2)ccc1C(=O)Nc1ccc(Cl)c(-c2nc3ccccc3[nH]2)c1 [Example 5, N-(3-(1H-benzo[d]imidazol-2-yl)-4-chlorophenyl)-3-methyl-4′-(methylsulfonyl)biphenyl-4-carboxamide]

pIC50 [1, 3]: 7.07 | pIC50 [2, 3]: 7.84
Compound: O=C(Nc1ccc(Cl)c(-c2nc3ccccc3[nH]2)c1)c1ccc(-c2cccc(F)c2)cc1 [Example 13, N-(3-(1H-benzo[d]imidazol-2-yl)-4-chlorophenyl)-3′-fluorobiphenyl-4-carboxamide]

pIC50 [1, 3]: 7.57 | pIC50 [2, 3]: 7.89
Compound: Cc1cc(-c2cccnc2)ccc1C(=O)Nc1ccc(Cl)c(-c2nc3ccccc3[nH]2)c1 [Example 40, N-(3-(1H-benzo[d]imidazol-2-yl)-4-chlorophenyl)-2-methyl-4-(pyridin-3-yl)benzamide]

pIC50 [1, 3]: 6.81 | pIC50 [2, 3]: 7.37
Compound: CC(=O)c1ccc(-c2ccc(C(=O)Nc3ccc(Cl)c(-c4nc5ccccc5[nH]4)c3)c(C)c2)cc1 [Example 9, N-(3-(1H-benzo[d]imidazol-2-yl)-4-chlorophenyl)-3-methyl-4′-acetylbiphenyl-4-carboxamide]

pIC50 [1, 3]: 7.51 | pIC50 [2, 3]: 8.77
Compound: Cc1cc(-c2cccc(C#N)c2)ccc1C(=O)Nc1ccc(Cl)c(-c2nc3ccccc3[nH]2)c1 [Example 11, N-(3-(1H-benzo[d]imidazol-2-yl)-4-chlorophenyl)-3-methyl-3′-cyanobiphenyl-4-carboxamide]

pIC50 [1, 3]: 6.79 | pIC50 [2, 3]: 7.64
Compound: O=C(Nc1ccc(Cl)c(-c2nc3ccccc3[nH]2)c1)c1ccc(-c2ccc(C(F)(F)F)cc2)cc1[N+](=O)[O-] [Example 19, N-(3-(1H-benzo[d]imidazol-2-yl)-4-chlorophenyl)-3-nitro-4′-(trifluoromethyl)biphenyl-4-carboxamide]

pIC50 [1, 3]: 7.07 | pIC50 [2, 3]: 8.11
Compound: Cc1cc(-c2ccc(F)cc2)ccc1C(=O)Nc1ccc(Cl)c(-c2nc3ccccc3[nH]2)c1 [Example 4, N-(3-(1H-benzo[d]imidazol-2-yl)-4-chlorophenyl)-3-methyl-4′-fluorobiphenyl-4-carboxamide]
